Source: PubChem BioAssay (NCI)
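Each compound was tested at five concentrations against cells in 96-well plates for 48 hours. GI50: concentration for 50% inhibition of growth. TGI denotes the concentration required for complete inhibition of growth.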

What was measured:
Assay in all cases: NCI tumour cell line growth inhibition, 48 h
SF-295 CNS = tested on: SF-295 CNS
NCI/ADR-RES ovarian = tested on: NCI/ADR-RES ovarian
HT29 colon = tested on: HT29 colon
SN12C renal = tested on: SN12C renal
NCI-H23 lung = tested on: NCI-H23 lung
EKVX NSCLC = tested on: EKVX NSCLC
SF-268 CNS = tested on: SF-268 CNS
OVCAR-4 ovarian = tested on: OVCAR-4 ovarian
PC-3 prostate = tested on: PC-3 prostate
786-0 renal = tested on: 786-0 renal

Cc1ccc2nc3c(C(=O)NCCN(C)C)cccc3cc2c1
TGI (SF-295 CNS): 7.14 µM | TGI (NCI/ADR-RES ovarian): 4.25 µM | TGI (HT29 colon): 4.79 µM | TGI (SN12C renal): 7.06 µM | TGI (NCI-H23 lung): 4.21 µM | TGI (EKVX NSCLC): 2.78 µM | TGI (SF-268 CNS): 2.52 µM

COc1ccc(C2CCc3nc4nc(N)nc(N)c4cc3C2)cc1 (centres undefined)
TGI (OVCAR-4 ovarian): 67.4 µM | TGI (SF-295 CNS): 89.6 µM | TGI (PC-3 prostate): > 100 µM | TGI (NCI/ADR-RES ovarian): > 100 µM | TGI (HT29 colon): 94.3 µM | TGI (SN12C renal): 59.5 µM | TGI (786-0 renal): 17 µM | TGI (EKVX NSCLC): > 100 µM | TGI (SF-268 CNS): > 100 µM

CSc1ccc2c(c1)c(CCN)c(C)n2Cc1ccc(Cl)c(Cl)c1
GI50 (SF-295 CNS): 1.69 µM | TGI (SF-295 CNS): 3.22 µM | GI50 (PC-3 prostate): 1.67 µM | TGI (PC-3 prostate): 3.11 µM | GI50 (HT29 colon): 1.49 µM | TGI (HT29 colon): 2.92 µM | GI50 (NCI-H23 lung): 1.73 µM | TGI (NCI-H23 lung): 3.3 µM

CCCS(=O)(=O)O
TGI (OVCAR-4 ovarian): > 100 µM | TGI (SF-295 CNS): > 100 µM | TGI (PC-3 prostate): > 100 µM | TGI (NCI/ADR-RES ovarian): > 100 µM | TGI (HT29 colon): > 100 µM | TGI (NCI-H23 lung): > 100 µM | TGI (EKVX NSCLC): > 100 µM | TGI (SF-268 CNS): > 100 µM

NC(=O)c1cnc2sc3ccccc3n2c1=O
TGI (OVCAR-4 ovarian): > 100 µM | TGI (SF-295 CNS): > 100 µM | TGI (PC-3 prostate): > 100 µM | TGI (NCI/ADR-RES ovarian): > 100 µM | TGI (HT29 colon): > 100 µM | TGI (SN12C renal): > 100 µM | TGI (786-0 renal): > 100 µM | TGI (EKVX NSCLC): > 100 µM | TGI (SF-268 CNS): > 100 µM

CN(c1c(Cl)cccc1Cl)S(=O)(=O)c1ccccc1[N+](=O)[O-]
TGI (OVCAR-4 ovarian): > 100 µM | TGI (SF-295 CNS): > 100 µM | TGI (PC-3 prostate): > 100 µM | TGI (NCI/ADR-RES ovarian): > 100 µM | TGI (HT29 colon): > 100 µM | TGI (SN12C renal): > 100 µM | TGI (NCI-H23 lung): > 100 µM | TGI (786-0 renal): > 100 µM | TGI (EKVX NSCLC): > 100 µM | TGI (SF-268 CNS): > 100 µM

CN1CCc2c(sc3nc(Nc4ccccc4)n(N)c(=O)c23)C1
TGI (SF-295 CNS): > 100 µM | TGI (PC-3 prostate): > 100 µM | TGI (NCI/ADR-RES ovarian): > 100 µM | TGI (HT29 colon): > 100 µM | TGI (SN12C renal): > 100 µM | TGI (NCI-H23 lung): > 100 µM | TGI (786-0 renal): > 100 µM | TGI (EKVX NSCLC): > 100 µM | TGI (SF-268 CNS): > 100 µM

O=C(NC(=O)c1cn(CCN2CCNCC2)c(=O)[nH]c1=O)OCc1ccccc1
TGI (OVCAR-4 ovarian): > 100 µM | TGI (SF-295 CNS): > 100 µM | TGI (HT29 colon): > 100 µM | TGI (SN12C renal): > 100 µM | TGI (NCI-H23 lung): > 100 µM | TGI (EKVX NSCLC): > 100 µM | TGI (SF-268 CNS): > 100 µM

C#CCNC(=O)CCC(N)C(=O)O (centres undefined)
TGI (OVCAR-4 ovarian): > 100 µM | TGI (SF-295 CNS): > 100 µM | TGI (NCI/ADR-RES ovarian): > 100 µM | TGI (HT29 colon): > 100 µM | TGI (SN12C renal): > 100 µM | TGI (NCI-H23 lung): > 100 µM | TGI (EKVX NSCLC): > 100 µM | TGI (SF-268 CNS): > 100 µM

O=C(N/N=C(/COc1cccc(Cl)c1)N=Cc1ccncc1)c1ccncc1
TGI (OVCAR-4 ovarian): > 100 µM | TGI (SF-295 CNS): > 100 µM | TGI (PC-3 prostate): > 100 µM | TGI (NCI/ADR-RES ovarian): > 100 µM | TGI (HT29 colon): > 100 µM | TGI (SN12C renal): > 100 µM | TGI (NCI-H23 lung): > 100 µM | TGI (786-0 renal): > 100 µM | TGI (EKVX NSCLC): > 100 µM | TGI (SF-268 CNS): > 100 µM

CSC1=N/C(=C\c2cccs2)C(=O)N1CN1CCOCC1
TGI (OVCAR-4 ovarian): 86.7 µM | TGI (SF-295 CNS): > 100 µM | TGI (PC-3 prostate): > 100 µM | TGI (NCI/ADR-RES ovarian): 90.5 µM | TGI (HT29 colon): > 100 µM | TGI (SN12C renal): > 100 µM | TGI (NCI-H23 lung): > 100 µM | TGI (786-0 renal): > 100 µM | TGI (EKVX NSCLC): > 100 µM | TGI (SF-268 CNS): > 100 µM

C1CNCCN2CCCNCCN(C1)CC2
TGI (OVCAR-4 ovarian): > 100 µM | TGI (SF-295 CNS): > 100 µM | TGI (PC-3 prostate): > 100 µM | TGI (NCI/ADR-RES ovarian): > 100 µM | TGI (HT29 colon): > 100 µM | TGI (SN12C renal): > 100 µM | TGI (NCI-H23 lung): > 100 µM | TGI (786-0 renal): > 100 µM | TGI (EKVX NSCLC): > 100 µM | TGI (SF-268 CNS): > 100 µM

COc1ccc(-c2cc(-c3ccccc3)n(C3OC(COC(C)=O)C(OC(C)=O)C(OC(C)=O)C3OC(C)=O)c(=S)c2C#N)cc1 (centres undefined)
TGI (OVCAR-4 ovarian): 8.06 µM | TGI (SF-295 CNS): 17.9 µM | TGI (PC-3 prostate): 32.3 µM | TGI (NCI/ADR-RES ovarian): 50.5 µM | TGI (HT29 colon): 18.7 µM | TGI (NCI-H23 lung): 47.7 µM | TGI (786-0 renal): 12.4 µM | TGI (EKVX NSCLC): 31.9 µM | TGI (SF-268 CNS): 58.2 µM

O=[N+]([O-])c1cc2n[nH]nc2c2nonc12
TGI (OVCAR-4 ovarian): > 100 µM | TGI (SF-295 CNS): > 100 µM | TGI (PC-3 prostate): > 100 µM | TGI (NCI/ADR-RES ovarian): > 100 µM | TGI (HT29 colon): > 100 µM | TGI (SN12C renal): > 100 µM | TGI (NCI-H23 lung): 83.3 µM | TGI (786-0 renal): > 100 µM | TGI (EKVX NSCLC): > 100 µM | TGI (SF-268 CNS): > 100 µM

O=C(ON=c1c2ccccc2ccc2ccccc12)c1cc([N+](=O)[O-])cc([N+](=O)[O-])c1
TGI (OVCAR-4 ovarian): > 100 µM | TGI (SF-295 CNS): > 100 µM | TGI (PC-3 prostate): > 100 µM | TGI (NCI/ADR-RES ovarian): > 100 µM | TGI (HT29 colon): > 100 µM | TGI (SN12C renal): > 100 µM | TGI (NCI-H23 lung): > 100 µM | TGI (786-0 renal): > 100 µM | TGI (EKVX NSCLC): > 100 µM | TGI (SF-268 CNS): > 100 µM

C=C1C(=O)OC2/C=C(\C)CC/C=C(/C)CC(OC(=O)/C(=C/CO)CO)C12 (centres undefined)
TGI (OVCAR-4 ovarian): > 100 µM | TGI (SF-295 CNS): > 100 µM | TGI (PC-3 prostate): > 100 µM | TGI (NCI/ADR-RES ovarian): > 100 µM | TGI (HT29 colon): 75.3 µM | TGI (NCI-H23 lung): 39.1 µM | TGI (786-0 renal): 88.8 µM | TGI (SF-268 CNS): 77.5 µM

COC1/C=C\C=C(/C)C(=O)NC2=CC(=O)C=C(C2=O)C(OC)C(C)CC(OC)C(OC)C(C)/C=C(/C)C1OC(N)=O (centres undefined)
TGI (OVCAR-4 ovarian): 21.8 µM | TGI (SF-295 CNS): 35.4 µM | TGI (NCI/ADR-RES ovarian): 21.8 µM | TGI (HT29 colon): 12.1 µM | TGI (SN12C renal): 19 µM | TGI (NCI-H23 lung): 16 µM | TGI (EKVX NSCLC): 20.9 µM | TGI (SF-268 CNS): 26.6 µM

O=C(CSc1nc2ccc(I)cc2c(=O)n1Cc1ccccc1)N/N=C/c1ccccc1
TGI (OVCAR-4 ovarian): > 100 µM | TGI (SF-295 CNS): 30.9 µM | TGI (PC-3 prostate): 28.6 µM | TGI (NCI/ADR-RES ovarian): 92 µM | TGI (HT29 colon): > 100 µM | TGI (SN12C renal): > 100 µM | TGI (NCI-H23 lung): 71.3 µM | TGI (786-0 renal): 32.6 µM | TGI (EKVX NSCLC): > 100 µM | TGI (SF-268 CNS): 32.4 µM

COc1cc2c(cc1C)NC(=O)/C2=C/c1c(Cl)[nH]c2cc(C)c(OC)cc12
TGI (OVCAR-4 ovarian): 18 µM | TGI (SF-295 CNS): 6.18 µM | TGI (PC-3 prostate): 21.7 µM | TGI (NCI/ADR-RES ovarian): 13.5 µM | TGI (HT29 colon): 17.6 µM | TGI (SN12C renal): 8.18 µM | TGI (NCI-H23 lung): 11.6 µM | TGI (786-0 renal): 18.2 µM | TGI (EKVX NSCLC): 22.8 µM | TGI (SF-268 CNS): 18.7 µM

O=C1CCc2c3c(c4c([nH]c5ccccc54)c2CC1)C(=O)NC3=O
TGI (OVCAR-4 ovarian): 13.1 µM | TGI (SF-295 CNS): 33.5 µM | TGI (PC-3 prostate): 70.6 µM | TGI (NCI/ADR-RES ovarian): > 100 µM | TGI (HT29 colon): 12.1 µM | TGI (SN12C renal): > 100 µM | TGI (NCI-H23 lung): > 100 µM | TGI (786-0 renal): > 100 µM | TGI (EKVX NSCLC): > 100 µM | TGI (SF-268 CNS): > 100 µM

CCN(CC)CCn1ncc2ccc3c(c(=O)c4cccnc4n3CCN(CC)CC)c21
TGI (OVCAR-4 ovarian): 2.87 µM | TGI (SF-295 CNS): > 9.52 µM | TGI (PC-3 prostate): 3.85 µM | TGI (NCI/ADR-RES ovarian): 4.86 µM | TGI (HT29 colon): 3.13 µM | TGI (SN12C renal): 8.15 µM | TGI (NCI-H23 lung): 3.05 µM | TGI (786-0 renal): 4.6 µM | TGI (EKVX NSCLC): 6.83 µM | TGI (SF-268 CNS): 4.66 µM

Nc1[nH]c(=O)nc2sc3c(c12)CCCC3
TGI (OVCAR-4 ovarian): > 100 µM | TGI (PC-3 prostate): > 100 µM | TGI (NCI/ADR-RES ovarian): > 100 µM | TGI (HT29 colon): > 100 µM | TGI (SN12C renal): > 100 µM | TGI (NCI-H23 lung): > 100 µM | TGI (786-0 renal): > 100 µM | TGI (EKVX NSCLC): > 100 µM | TGI (SF-268 CNS): > 100 µM

O=c1oc2ncccc2n1Cc1ccc([N+](=O)[O-])cc1
TGI (OVCAR-4 ovarian): > 100 µM | TGI (SF-295 CNS): > 100 µM | TGI (PC-3 prostate): > 100 µM | TGI (NCI/ADR-RES ovarian): > 100 µM | TGI (HT29 colon): > 100 µM | TGI (SN12C renal): > 100 µM | TGI (NCI-H23 lung): > 100 µM | TGI (786-0 renal): > 100 µM | TGI (EKVX NSCLC): > 100 µM | TGI (SF-268 CNS): > 100 µM
